Square brackets hold non-standard residues; d marks the D form. Ends that are not written are not given here. Peptide text beside a SMILES is read from it. pY = N[C@@H](Cc1ccc(OP(=O)(O)O)cc1)C(=O)O
Tested on: RasGAP^FL (full-length RasGAP) GAP activity toward H-Ras
Test: In vitro GAP assay, single turnover fluorescence-based phosphate sensor
Format: biochemical, human
Conditions: 50 μM peptide, 25 nM RasGAP^FL, 0.8 μM GTP-H-Ras, 1 μM phosphate sensor, 20 mM Tris pH 8, 50 mM NaCl; first 10 min after Mg2+; n = 4 to 14, Mann-Whitney
Source text: Finally, to probe whether the conformational movements in the SH2-SH3-SH2 region nonetheless impact catalytic activity in vitro, we conducted GAP assays. […] Our SAXS data for RasGAP^232 may provide a basis for how this is achieved: by inducing local changes in 232 conformations upon peptide engagement. Therefore, we purified full-length RasGAP (residues 1–1047, termed RasGAP^FL, Fig. S2G) and assessed activity against purified H-Ras GTPase domain preloaded with GTP (residues 1–167, Fig. S2H) in a single turnover fluorescence-based phosphate sensor assay that monitors phosphate release in real time ([64]). We find that RasGAP^FL activates H-Ras, as expected (Fig. 6) ([61], [62]). […]
Figure 6 In vitro GAP assays.A, GAP assay for full-length RasGAP activation of GTP-loaded H-Ras. […] Initial rates calculated for each reaction using only the first 10 min after addition of Mg^2+, where the phosphate release rate was linear. […]
H-Ras was preloaded with GTP by mixing purified H-Ras^1-167 protein, 10 mM EDTA, and 10-fold excess GTP in 20 mM Tris pH 8, 100 mM NaCl for 1 h at room temperature. […] Fluorescence excitation and emission settings were 430 nm and 450 nm, respectively with a bandwidth of 10 nm, and readings were taken in 1-min intervals. […]

| Compound | effect of peptide on in vitro GAP activity (initial rate of phosphate release) |
| --- | --- |
| CC[C@H](C)[C@H](NC(=O)[C@H](CCCNC(=N)N)NC(=O)[C@H](CC(C)C)NC(=O)[C@H](CO)NC(=O)[C@H](CC(=O)O)NC(=O)[C@H](CC(C)C)NC(=O)[C@@H]1CCCN1C(=O)[C@H](CCC(=O)O)NC(=O)[C@H](C)NC(=O)[C@H](Cc1ccc(OP(=O)(O)O)cc1)NC(=O)[C@H](CC(C)C)NC(=O)[C@H](C)NC(=O)[C@@H]1CCCN1C(=O)[C@@H]1CCCN1C(=O)[C@H](CO)NC(C)=O)C(=O)N[C@@H](C)C(=O)N1CCC[C@H]1C(=O)N[C@@H](CS)C(=O)N1CCC[C@H]1C(=O)N[C@@H](CO)C(=O)N[C@@H](CCC(N)=O)C(=O)N[C@@H](CC(=O)O)C(=O)N[C@@H](CO)C(=O)N[C@@H](CC(C)C)C(=O)N[C@@H](Cc1ccc(OP(=O)(O)O)cc1)C(=O)N[C@@H](CO)C(=O)N[C@@H](CC(=O)O)C(=O)N1CCC[C@H]1C(=O)N[C@@H](CC(C)C)C(=O)N[C@@H](CC(=O)O)C(=O)N[C@@H](CO)C(=O)N[C@H](C(N)=O)[C@@H](C)O [pYpY Dok1] (Ac-SPPAL[pY]AEPLDSLRIAPCPSQDSL[pY]SDPLDST-NH2) | do not impact GAP activity |
| SD[pY]AEPMDAVVKPRNEEENI[pY]SVPH [pYpY p190RhoGAP-A, Doubly phosphorylated p190RhoGAP-A peptide (pY1087, pY1105)] | do not impact GAP activity |

From publication PMC10470053, “Diverse p120RasGAP interactions with doubly phosphorylated partners EphB4, p190RhoGAP, and Dok1” (The Journal of Biological Chemistry, 2023)
